Assay results from article PMC10377586 (Biomolecules, 2023).

How the values were obtained:
human MAO-A = target: T1, human MAO-A (Homo sapiens, UniProt P21397); test: Amplex Red monoamine oxidase assay, MAO-A; type: biochemical; settings: for IC50: human recombinant MAO-A, read-out: MAO-A IC50 ± SEM; for inhibition at 1 µM: read-out: MAO-A % Inhibition ± SEM at 1 µM
T1 construct: purchased Sigma Aldrich M7316
T1 sequence (P21397 1-527): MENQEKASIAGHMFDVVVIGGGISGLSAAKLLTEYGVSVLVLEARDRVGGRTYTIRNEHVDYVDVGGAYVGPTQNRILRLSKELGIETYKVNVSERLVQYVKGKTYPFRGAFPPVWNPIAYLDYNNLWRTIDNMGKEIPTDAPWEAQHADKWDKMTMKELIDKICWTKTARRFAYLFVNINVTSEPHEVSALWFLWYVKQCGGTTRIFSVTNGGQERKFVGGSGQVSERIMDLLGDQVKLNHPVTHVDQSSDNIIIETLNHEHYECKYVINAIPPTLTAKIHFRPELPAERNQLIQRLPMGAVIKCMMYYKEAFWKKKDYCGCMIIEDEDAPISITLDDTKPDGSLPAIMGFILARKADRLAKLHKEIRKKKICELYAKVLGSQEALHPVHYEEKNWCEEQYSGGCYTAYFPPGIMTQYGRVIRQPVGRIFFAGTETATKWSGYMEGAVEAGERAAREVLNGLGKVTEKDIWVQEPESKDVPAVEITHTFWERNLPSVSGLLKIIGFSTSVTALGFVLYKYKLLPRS
Procedure: The final compounds were evaluated in vitro for their human MAO-B (hMAO-B) inhibitory potencies, and selected structures were also investigated for human MAO-A (hMAO-A) inhibition.
Inhibition activity of compounds at MAO enzyme isoforms was measured via a fluorometric method using the Amplex Red Monoamine Oxidase Assay (ThermoFisher Scientific, Waltham, MA, USA #A12214) in a 96-well plates. Human recombinant MAO-B and MAO-A enzymes (Sigma Aldrich, St. Louis, MO, USA #M7441 and #M7316) were used. The assays were conducted as previously described.

rat A1 (rA1) ARs = target: T2, rat A1 (rA1) ARs (Rattus norvegicus, UniProt P25099); test: Radioligand binding [3H]CCPA, rat brain cortical membranes; settings: read-out: rA1 [3H]CCPA Ki ± SEM
T2 construct: using rat brain cortical membrane preparations for A1; tissue Pel Freez; host or cells: rat brain cortex membranes
T2 sequence (P25099 1-326): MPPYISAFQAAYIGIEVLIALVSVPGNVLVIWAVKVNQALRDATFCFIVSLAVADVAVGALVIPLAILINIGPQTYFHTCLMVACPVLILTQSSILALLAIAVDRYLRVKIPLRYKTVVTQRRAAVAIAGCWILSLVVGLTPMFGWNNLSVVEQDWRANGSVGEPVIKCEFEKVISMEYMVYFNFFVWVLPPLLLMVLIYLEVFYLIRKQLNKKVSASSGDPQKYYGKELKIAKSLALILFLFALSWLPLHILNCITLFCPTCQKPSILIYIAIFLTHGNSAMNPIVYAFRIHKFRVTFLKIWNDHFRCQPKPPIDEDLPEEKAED
Procedure: The final compounds were tested in radioligand binding assays to evaluate their affinity for all four ARs subtypes (see Table 2). Rat brain cortical membrane preparations were used as a source of rat A1 (rA1) ARs, and rat brain striatal membrane preparations served as a source of rat A2A (rA2A) ARs. For A2B- and A3AR assays, membrane preparations of Chinese hamster ovary (CHO) cells recombinantly expressing either human A2B (hA2B) or human A3 (hA3) ARs were employed.
Adenosine receptor radioligand binding assays were performed as previously described using rat brain cortical membrane preparations for A1 and rat brain striatal membrane preparations for A2A AR assays. Frozen rat brains (unstripped) were obtained from Pel Freez, Rogers, AR, USA. For assays at human AR subtypes, cell membranes of CHO cells recombinantly expressing the respective receptor were used. The following compounds were employed as radioligands: A1: [^3H]2-chloro-N^6-cyclopentyladenosine ([^3H]CCPA); A2A: [^3H]3-(3-hydroxypropyl)-7-methyl-8-(m-methoxystyryl)-1-propargylxanthine ([^3H]MSX-2); A2B: [^3H]8-(4-(4-(4-chlorophenyl)piperazine-1-sulfonyl)phenyl)-1-propylxanthine ([^3H]PSB-603); A3: [^3H]phenyl-8-ethyl-4-methyl-(8R)-4,5,7,8-tetrahydro-1H-imidazo[2,1-i]purine-5-one ([^3H]PSB-11). Initially, a single high concentration of compound was tested (1 µM). For potent compounds, full concentration–inhibition curves were determined using six to ten different concentrations of test compound spanning three orders of magnitude. At least three independent experiments were performed. Data were analyzed using GraphPad PRISM program version 4.0 or higher (Graph Pad, San Diego, CA, USA).

human D2L receptor = human D2L receptor (Homo sapiens, UniProt P14416); test: Radioligand binding [3H]-raclopride, HEK293 membranes; settings: HEK293 cells, human D2; read-out: hD2 [3H]-Raclopride Ki ± SEM
Procedure: Rat brain cortical membranes were used as source of native rat D1 receptor protein, and human D2 receptor was recombinantly expressed in HEK293 cells.
HEK293 cells with stable expression of human D2L receptor were maintained at 37 °C in a humidified atmosphere with 5% CO2 and grown in Dulbecco’s Modifier Eagle Medium containing 10% dialyzed fetal bovine serum and 500 µg/mL G418 sulfate. For membrane preparation, cells were subcultured in 150 cm^2 flasks, grown to 90% confluence, washed twice with prewarmed to 37 °C phosphate buffered saline (PBS), and pelleted by centrifugation (200× g) in PBS containing 0.1 mM EDTA and 1 mM dithiothreitol. Prior to membrane preparation, pellets were stored at −80 °C.
Cell pellets were thawed and homogenized in 10 volumes of assay buffer using an Ultra Turrax tissue homogenizer and centrifuged twice at 35,000× g for 15 min at 4 °C. The incubation buffer consisted of 50 mM Tris-HCl, 1 mM EDTA, 4 mM MgCl2, 120 mM NaCl, 5 mM KCl, 1.5 mM CaCl2, and 0.1% ascorbate. Assay was incubated in a total volume of 200 µL in 96-well microtiter plate for 1 h at 37 °C. The process of equilibration was terminated by rapid filtration through Unifilter plate with a 96-well cell harvester and radioactivity retained on the filter was quantified on a Microbeta plate reader (PerkinElmer). For competition studies, the assay samples contained radioligand 2.5 nM [^3H]-raclopride (PerkinElmer). Non-specific binding was defined with 10 µM of haloperidol. Each compound was tested in triplicate at 7 concentrations (10^−10–10^−4 M). The inhibition constants (Ki) were calculated from the Cheng–Prusoff equation [66]. Results were expressed as means of at least two separate experiments.

human D2L receptor, sequence (P14416 whole entry): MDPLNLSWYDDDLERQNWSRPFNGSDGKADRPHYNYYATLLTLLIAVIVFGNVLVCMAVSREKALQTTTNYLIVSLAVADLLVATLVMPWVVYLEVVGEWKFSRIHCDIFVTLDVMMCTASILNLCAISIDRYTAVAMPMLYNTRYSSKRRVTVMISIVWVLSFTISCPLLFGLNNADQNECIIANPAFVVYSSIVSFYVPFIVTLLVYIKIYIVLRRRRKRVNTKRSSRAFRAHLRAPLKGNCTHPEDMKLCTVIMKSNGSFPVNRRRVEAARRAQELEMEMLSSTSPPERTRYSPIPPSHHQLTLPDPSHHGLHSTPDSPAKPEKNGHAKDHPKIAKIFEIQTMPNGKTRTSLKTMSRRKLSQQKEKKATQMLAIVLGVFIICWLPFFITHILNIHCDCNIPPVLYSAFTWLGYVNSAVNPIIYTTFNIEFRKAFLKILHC

| SMILES | IC50 (human MAO-A) | inhibition at 1 µM (human MAO-A) | Ki (rat A1 (rA1) ARs) | Ki (human D2L receptor) |
| --- | --- | --- | --- | --- |
| Cn1c(=O)c2c(nc(NCCc3ccc(O)c(O)c3)n2C)n(C)c1=O [Compound 11a, 8-((3,4-Dihydroxyphenethyl)amino)-1,3,7-trimethyl-3,7-dihydro-1H-purine-2,6-dione] | > 1000 nM | 44% | 1980 ± 290 nM | 25.2 ± 5.97 µM |
| CCn1c(NCCc2ccc(O)c(O)c2)nc2c1c(=O)n(C)c(=O)n2C [Compound 11b, 8-((3,4-Dihydroxyphenethyl)amino)-7-ethyl-1,3-dimethyl-3,7-dihydro-1H-purine-2,6-dione] | 891 ± 63 nM | – | 479 ± 95 nM | 16.2 ± 1.23 µM |
| CCCn1c(NCCc2ccc(O)c(O)c2)nc2c1c(=O)n(C)c(=O)n2C [Compound 11c, 8-((3,4-Dihydroxyphenethyl)amino)-1,3-dimethyl-7-propyl-3,7-dihydro-1H-purine-2,6-dione] | > 1000 nM | 33% | 730 ± 93 nM | 9.37 ± 1.15 µM |
| CC(C)n1c(NCCc2ccc(O)c(O)c2)nc2c1c(=O)n(C)c(=O)n2C [Compound 11d, 8-((3,4-Dihydroxyphenethyl)amino)-7-isopropyl-1,3-dimethyl-3,7-dihydro-1H-purine-2,6-dione] | ≥ 1000 nM | 47% | 857 ± 43 nM | 17.7 ± 3.99 µM |
| CCCCn1c(NCCc2ccc(O)c(O)c2)nc2c1c(=O)n(C)c(=O)n2C [Compound 11e, 7-Butyl-8-((3,4-dihydroxyphenethyl)amino)-1,3-dimethyl-3,7-dihydro-1H-purine-2,6-dione] | > 1000 nM | 38% | 304 ± 66 nM | 12.7 ± 1.86 µM |
| CC(C)Cn1c(NCCc2ccc(O)c(O)c2)nc2c1c(=O)n(C)c(=O)n2C [Compound 11f, 8-((3,4-Dihydroxyphenethyl)amino)-7-isobutyl-1,3-dimethyl-3,7-dihydro-1H-purine-2,6-dione] | > 1000 nM | 42% | 1130 ± 180 nM | 27.6 ± 4 µM |
| CCC(C)n1c(NCCc2ccc(O)c(O)c2)nc2c1c(=O)n(C)c(=O)n2C (stereo not drawn) [Compound 11g, 7-(Sec-butyl)-8-((3,4-dihydroxyphenethyl)amino)-1,3-dimethyl-3,7-dihydro-1H-purine-2,6-dione] | > 1000 nM | 44% | 1170 ± 380 nM | 39.2 ± 8.43 µM |
| CCCCCn1c(NCCc2ccc(O)c(O)c2)nc2c1c(=O)n(C)c(=O)n2C [Compound 11h, 8-((3,4-Dihydroxyphenethyl)amino)-1,3-dimethyl-7-pentyl-3,7-dihydro-1H-purine-2,6-dione] | 692 ± 7 nM | – | 191 ± 30 nM | 8.26 ± 0.48 µM |
| CCCCCCn1c(NCCc2ccc(O)c(O)c2)nc2c1c(=O)n(C)c(=O)n2C [Compound 11i, 8-((3,4-Dihydroxyphenethyl)amino)-7-hexyl-1,3-dimethyl-3,7-dihydro-1H-purine-2,6-dione] | 246 ± 72 nM | – | > 10000 nM | 6.68 ± 0.95 µM |
| Cn1c(=O)c2c(nc(NCCc3ccc(O)c(O)c3)n2Cc2ccccc2)n(C)c1=O [Compound 11j, 7-Benzyl-8-((3,4-dihydroxyphenethyl)amino)-1,3-dimethyl-3,7-dihydro-1H-purine-2,6-dione] | 576 ± 68 nM | – | 455 ± 77 nM | 9.1 ± 1.65 µM |
| Cn1c(=O)c2c(nc(NCCc3ccc(O)c(O)c3)n2CCc2ccccc2)n(C)c1=O [Compound 11k, 8-((3,4-Dihydroxyphenethyl)amino)-1,3-dimethyl-7-phenethyl-3,7-dihydro-1H-purine-2,6-dione] | 256 ± 93 nM | – | ≥ 10000 nM | 9.95 ± 1.95 µM |
| Cn1c(=O)c2c(nc(NCCc3ccc(O)c(O)c3)n2CCOc2ccccc2)n(C)c1=O [Compound 11l, 8-((3,4-Dihydroxyphenethyl)amino)-1,3-dimethyl-7-(2-phenoxyethyl)-3,7-dihydro-1H-purine-2,6-dione] | > 1000 nM | 41% | 124 ± 22 nM | 8.87 ± 0.94 µM |
| CCCn1c(=O)c2c(nc(NCCc3ccc(O)c(O)c3)n2CCC)n(CCC)c1=O [Compound 12, 8-((3,4-Dihydroxyphenethyl)amino)-1,3,7-tripropyl-3,7-dihydro-1H-purine-2,6-dione] | ~1000 nM | 57% | 130 ± 31 nM | 13.3 ± 2.2 µM |
| CCCCn1c(=O)c2c(nc(NCCc3ccc(O)c(O)c3)n2CCC)n(CCCC)c1=O [Compound 13, 1,3-Dibutyl-8-((3,4-dihydroxyphenethyl)amino)-7-propyl-3,7-dihydro-1H-purine-2,6-dione] | > 1000 nM | 36% | 100 ± 15 nM | 4.39 ± 0.43 µM |
| Cn1c(=O)c2c(nc3n2CCCN3CCc2ccc(O)c(O)c2)n(C)c1=O [Compound 20a, 9-(3,4-Dihydroxyphenethyl)-1,3-dimethyl-6,7,8,9-tetrahydropyrimido[2,1-f]purine-2,4(1H,3H)-dione] | > 1000 nM | 29% | ≥ 10000 nM | 6.68 ± 0.87 µM |
| Cn1c(=O)c2c(nc3n2CCCCN3CCc2ccc(O)c(O)c2)n(C)c1=O [Compound 20b, 10-(3,4-Dihydroxyphenethyl)-1,3-dimethyl-7,8,9,10-tetrahydro-1H-[1, 3]diazepino[2,1-f]purine-2,4(3H,6H)-dione] | > 1000 nM | 44% | 1050 ± 170 nM | 10.7 ± 1.4 µM |
| CCCn1c(=O)c2c(nc3n2CCCN3CCc2ccc(O)c(O)c2)n(CCC)c1=O [Compound 21, 9-(3,4-Dihydroxyphenethyl)-1,3-dipropyl-6,7,8,9-tetrahydropyrimido[2,1-f]purine-2,4(1H,3H)-dione] | ~1000 nM | 61% | 70 ± 5 nM | 12.7 ± 2.8 µM |
